From PubChem BioAssay (NCI)
“And” between values parts separate entries of the source, which are not always exact repeats. Identical values can stand only once.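 Values below derive from 48-hour exposures of cells grown in 96-well plates, with endpoints linearly interpolated between the two concentrations bracketing the appropriate inhibition level. Here, GI50 denotes the concentration required for 50% inhibition of growth. The concentration for full growth arrest is given as TGI.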

How the values were obtained:
Experiment in all cases: NCI anticancer screen, dose series, 48 h
[1] = system: UO-31 renal
[2] = system: KM12 colon
[3] = system: MCF7 breast
[4] = system: EKVX NSCLC
[5] = system: SNB-19 CNS
[6] = system: HT29 colon
[7] = system: OVCAR-4 ovarian
[8] = system: MOLT-4 leukemia
[9] = system: SK-MEL-2 melanoma
[10] = system: HOP-92 NSCLC

SMILES | TGI [1] [µM] | TGI [2] [µM] | TGI [3] [µM] | TGI [4] [µM] | TGI [5] | TGI [6] [µM] | TGI [7] [µM] | TGI [8] [µM] | TGI [9] | TGI [10] | GI50 [9] | GI50 [1] [nM] | GI50 [2] [nM] | GI50 [3] [nM] | GI50 [4] [nM] | GI50 [5] [µM] | GI50 [7] [nM] | GI50 [8] [nM] | GI50 [10] [nM]
O=c1cc(CNC2CCCC2)[nH]c(=O)[nH]1 | > 100 | > 100 | > 100 | > 100 | > 100 µM | > 100 | > 100 | > 100 | > 100 µM | – | – | – | – | – | – | – | – | – | –
COc1ccc(-c2nc(N)c(C#N)c3c2CCS(=O)(=O)c2ccc(C)cc2-3)cc1OC | > 100 | 52.3 | – | – | > 100 µM | 92.2 | > 100 | – | 85.2 µM | > 100 µM | – | – | – | – | – | – | – | – | –
[O-]/[N+](=C\c1ccccc1)[C@H](COCc1ccccc1)c1ccccc1 | > 100 | > 100 | – | > 100 | > 100 µM | > 100 | – | > 100 | > 100 µM | 92.7 µM | – | – | – | – | – | – | – | – | –
O=C(Cn1c(=O)oc2ccc(C(=O)c3ccc(F)cc3)cc21)c1ccc([N+](=O)[O-])cc1 | 84.4 | 87 | > 100 | – | > 100 µM | > 100 | > 100 | > 100 | 86.2 µM | > 100 µM | – | – | – | – | – | – | – | – | –
CCC1(O)CC(OC2CC(N(C)C)C(OC3CC4OC5CC(=O)C(C)OC5OC4C(C)O3)C(C)O2)c2c(cc3c(c2O)C(=O)c2c(O)ccc(O)c2C3=O)C1C(=O)OC (stereo not given) | – | – | – | – | 0.117 µM and 0.245 µM and 1.17 µM | – | – | – | 0.0309 µM and 0.0149 µM and 0.0148 µM | 0.0828 µM and 0.0644 µM | 9.19 nM and 4.39 nM and 8.79 nM | – | – | – | – | – | – | – | –
COc1cccc2c1OC1c3ccccc3OCC1C2 (stereo not given) | > 100 | > 100 | > 100 | > 100 | – | > 100 | – | > 100 | > 100 µM | – | – | – | – | – | – | – | – | – | –
O=C(CSc1nnc(-c2ccc(N=Cc3ccc(Cl)cc3)cc2)o1)Nc1ccccc1Cl | > 100 | > 100 | – | > 100 | > 100 µM | > 100 | > 100 | > 100 | > 100 µM | – | – | – | – | – | – | – | – | – | –
COc1ccc2oc(=N)c(C(=O)Nc3cccc4ccccc34)cc2c1 | 30.5 | > 100 | 63.9 | > 100 | 48 µM | > 100 | 40.3 | – | 85.7 µM | – | – | – | – | – | – | – | – | – | –
CC1=NN(C(=O)CSc2nnc(SCC(=O)N3N=C(C)CC3(O)c3ccccc3)s2)C(O)(c2ccccc2)C1 (stereo not given) | > 100 | 93.2 | > 100 | > 100 | > 100 µM | – | > 100 | > 100 | > 100 µM | > 100 µM | – | – | – | – | – | – | – | – | –
C/C=C/[C@@]1(OC(=O)c2ccccc2)C[C@@H]2CCCC[C@@H]21 | 22.9 | 32.9 | 33.3 | 31.7 | 31.6 µM | 31.7 | 32.2 | 40.2 | 30.3 µM | – | – | – | – | – | – | – | – | – | –
CC(=O)NC1C(OCc2ccccc2)OC(CO)C(O)C1OCC(=O)NC(C)C(=O)NC(CCC(=O)NCCCCNc1ccc([N+](=O)[O-])c2[nH]c3ccccc3c(=O)c12)C(N)=O (stereo not given) | > 100 | > 100 | > 100 | > 100 | > 100 µM | > 100 | > 100 | – | > 100 µM | > 100 µM | – | – | – | – | – | – | – | – | –
O=C1N[C@H]2c3c(Cl)sc(Cl)c3/C(=N/O)[C@H]2O1 | > 100 | > 100 | > 100 | > 100 | > 100 µM | > 100 | – | > 100 | > 100 µM | – | – | – | – | – | – | – | – | – | –
Cc1nc2c(=S)[nH]ncc2[nH]1 | > 100 | > 100 | > 100 | > 100 | > 100 µM | > 100 | > 100 | – | > 100 µM | > 100 µM | – | – | – | – | – | – | – | – | –
CC(=O)OCC1OC(Nc2[nH]c(=O)n(C)c(=O)c2-c2csc(N)n2)C(OC(C)=O)C(OC(C)=O)C1OC(C)=O (stereo not given) | > 100 | > 100 | – | – | > 100 µM | > 100 | > 100 | > 100 | > 100 µM | > 100 µM | – | – | – | – | – | – | – | – | –
CO/C(=N\N=C\c1cc(OC)ccc1OC)c1ccncc1 | > 10 | > 10 | > 10 | – | > 10 µM | – | – | > 10 | > 10 µM | – | – | – | – | – | – | – | – | – | –
O=S(=O)(c1ccc(Br)cc1)n1c2ccc(Br)cc2c2nc3ccccc3nc21 | > 100 | > 100 | – | > 100 | > 100 µM | > 100 | > 100 | > 100 | > 100 µM | > 100 µM | – | – | – | – | – | – | – | – | –
Cc1ccc(S(=O)(=O)N/N=C/c2oc(-c3cccc([N+](=O)[O-])c3)c(-c3cccc([N+](=O)[O-])c3)c2[N+](=O)[O-])cc1 | 32.3 | > 100 | – | > 100 | > 100 µM | > 100 | > 100 | 77.9 | 76.9 µM | > 100 µM | – | – | – | – | – | – | – | – | –

SMILES | TGI [1] [µM] | TGI [2] [µM] | TGI [3] [µM] | TGI [4] [µM] | TGI [5] | TGI [6] [µM] | TGI [7] [µM] | TGI [8] [µM] | TGI [9] | TGI [10] | GI50 [9] | GI50 [1] [nM] | GI50 [2] [nM] | GI50 [3] [nM] | GI50 [4] [nM] | GI50 [5] [µM] | GI50 [7] [nM] | GI50 [8] [nM] | GI50 [10] [nM]
O=C(CP(c1ccccc1)c1ccccc1)c1cccc(C(=O)CP(c2ccccc2)c2ccccc2)c1 | 50.8 | > 100 | > 100 | > 100 | > 100 µM | > 100 | > 100 | 48 | > 100 µM | – | – | – | – | – | – | – | – | – | –
C1OCC2S[C@@H]3COCO[C@@H]3C2O1 (stereo not given in full) | > 100 | > 100 | – | > 100 | > 100 µM | > 100 | > 100 | > 100 | – | – | – | – | – | – | – | – | – | – | –
COc1ccc(/C=C2\CN(C)Cc3c2nc(N)nc3-c2ccc(OC)cc2)cc1 | > 100 | > 100 | – | > 100 | > 100 µM | – | – | > 100 | > 100 µM | – | – | – | – | – | – | – | – | – | –
CCC(C)[C@H](NC(=O)[C@H](Cc1ccccc1)NC(=O)N(CC)c1ccccc1)C(=O)N[C@@H](CC(C)C)C(=O)OC (stereo not given in full) | 67.2 | 61.3 | > 100 | > 100 | > 100 µM | – | > 100 | 39.7 | > 100 µM | > 100 µM | – | – | – | – | – | – | – | – | –
CN(C)CC(/C(Cc1ccccc1)=N\NC(=O)C[n+]1ccccc1)c1ccccc1 (stereo not given) | > 100 | > 100 | – | > 100 | > 100 µM | > 100 | > 100 | > 100 | > 100 µM | > 100 µM | – | – | – | – | – | – | – | – | –
CCCC(=O)O | 10200 | > 18700 | – | > 18700 | > 18700 µM | > 18700 | > 18700 | > 18700 | > 18700 µM | 14200 µM | – | – | – | – | – | – | – | – | –
COc1cc2c(cc1OCCCN1CCN(CCCOc3cc4c(cc3OC)C(=O)N3CCC[C@H]3C=N4)CC1)C=CC(C)(C)O2 | 3.49 | 2.14 | 1.69 | 2.75 | – | – | 3.53 | 0.765 | 2.97 µM | – | 1580 nM | 1510 | 904 | 423 | 1360 | 2.22 | 1560 | 249 | –
Nc1nc2c(=O)c3ccccc3sc2s1 | > 100 | > 100 | > 100 | > 100 | > 100 µM | > 100 | – | > 100 | > 100 µM | > 100 µM | – | – | – | – | – | – | – | – | –
O=C(O)CCCl | > 5000 | > 5000 | – | – | – | > 5000 | > 5000 | > 5000 | > 5000 µM | > 5000 µM | – | – | – | – | – | – | – | – | –
COc1ccc(Cn2c(C)nc3c2C(=O)c2ccccc2C3=O)cc1 | 57.4 | 26.7 | – | 49.2 | > 75 µM | > 75 | 64.1 | 30 | 29.8 µM | – | – | – | – | – | – | – | – | – | –
COc1cc(/C=C/C(=O)OCC23CC[C@@]4(C(=O)O)CCC(C)[C@H](C)C4C2=CCC2[C@@]4(C)CC[C@H](O)C(C)(C)C4CC[C@]23C)ccc1O (stereo not given in full) | – | > 100 | 48.1 | 33.1 | > 100 µM | 42 | 46.9 | 76.2 | 47.5 µM | – | – | – | – | – | – | – | – | – | –
FC(F)(F)c1ccc(-c2nc(-c3nc4cc(Cl)c(Cl)cc4[nH]3)c3ccccn23)cc1 | – | – | – | – | > 100 µM | – | 5.41 | > 100 | 52.2 µM | 28.7 µM | 9490 nM | – | – | – | – | 6.88 | 1870 | > 100000 | 2970
C=C1C(=O)OC2/C=C(\C)C(OC(C)=O)C3OC3C(C)(O)CC(OC(=O)/C(C)=C/C)C12 (stereo not given) | 23 | 28.7 | – | 34.9 | 33.7 µM | 32.7 | 62.2 | 85.6 | 20.6 µM | 23.5 µM | – | – | – | – | – | – | – | – | –
C1=C(c2ccccc2)CN(c2ccccc2)OC1 | > 100 | > 100 | – | > 100 | > 100 µM | > 100 | – | > 100 | > 100 µM | – | – | – | – | – | – | – | – | – | –
O=C(Nc1c(O)[nH]c(=S)[nH]c1=O)c1ccccn1 | > 100 | > 100 | – | – | > 100 µM | > 100 | > 100 | > 100 | > 100 µM | > 100 µM | – | – | – | – | – | – | – | – | –
c1csc(-c2ccc(-c3ccc(-c4ccc(-c5cccs5)s4)s3)s2)c1 | > 100 | – | > 100 | > 100 | – | > 100 | – | > 100 | – | > 100 µM | – | – | – | – | – | – | – | – | –
O=C(O)[C@H]1[C@@H](C2CCCCC2)O[C@@H](C2CCCCC2)O[C@H]1C(F)(F)F | 66.2 | 46.4 | – | 43.1 | 81.3 µM | 44 | > 100 | 45 | – | 61.3 µM | – | – | – | – | – | – | – | – | –
